Results on twelve compounds are retold here after patent publication US4886822A, “Substituted anilide compounds which are useful in the treatment of arrhythmia” (Kowa Company, Ltd., priority 1987, dated 1989).

Structures are written as SMILES. Counter-ions that a name gives are not always drawn.

The subject of data set [1] is Chloroform-Induced Arrhythmia. In words: Activity on Chloroform-Induced Arrhythmia (ventricular fibrillation). The format is in vivo, ICR-strain mice. Conditions: Mus musculus, po, 30 mg/kg orally; ICR mice, 10 per group; chloroform vapor; read-out: Percent VF inhibition. The procedure:
Activity on Chloroform-Induced Arrhythmia: ICR-strain mice having a body weight of 20 to 35 g (10 per group) were used, and the test compound was administered orally in a dose of 30 mg/kg. The mice were put in a 1-liter beaker, and observed for 20 minutes for their symptoms or conditions. Then, they were placed in a vessel saturated with a vapor of chloroform, and the time which elapsed until the animals ceased to breathe was measured. After the stopping of the breathing, the mice were taken out from the vessel and their cardiograms (second induction) were recorded by a memory oscilloscope (VC-10, made by Nippon Kodensha) and a linear corder (WTR331 made by Watanabe Measuring Instrument Co., Ltd.). The occurrence of ventricular fibrillation (VF) was evaluated by the cardiograms. The results are shown in Table 1 by percent VF inhibition.

Data set [2] deals with Ouabain-Induced Arrhythmia. In words: Activity on Ouabain-Induced Arrhythmia. In kind it is in vivo, Male hybrid adult dogs. Conditions: Canis lupus familiaris, iv; continuous injection into femoral vein 0.5 mg/kg/min; anaesthetized dogs; n=3 (range); read-out: Dose required complete inhibition. Here is the method:
Activity on Ouabain-Induced Arrhythmia: Male hybrid adult dogs weighing 9 to 17 kg were anaesthetized, and fixed in the supine position under artificial respiration. The blood pressures, heart rates and second induced cardiograms (using RA-101 made by San-ei Measuring Instrument Co., Ltd.) of the animals were measured. Ouabain was first intravenously administered in a dose of 40 μg/kg, and 30 minutes later in a dose of 20 μg/kg. Furthermore, until continuous ventricular arrhythmia was obtained, 10 μg/kg of ouabain was cumulatively administered at intervals of 15 minutes. The ventricular automaticity was examined substantially in accordance with the method of Roberts et al. (J. Pharmacol. Exp. Ther. 117, 374-384, 1956). The peripheral end of the right cervical vagus nerve was stimulated with short waves (0.4-1.9 V, 1 millisecond, 20 Hz) using an electrical stimulating device (MSE-3R made by Nippon Kodensha) for 10 seconds. […] After the administration, the vagus nerve was stimulated every minute, and the inhibition of extrasystole was observed. At the same time, the presence or absence of restoration of the cardiogram to a normal rhythm was observed using the inversion of R waves as an index in ventricular arrhythmia. The anti-arrhythmic action was evaluated such that when the normal sinus rhythm was restored and extrasystole was not induced by stimulation of the vagus nerve, the result was rated as complete inhibition.

The conditions of data set [3]: cited from earlier work; for side effects: known/reported side effects (background).

With `COc1ccc(-c2ccccn2)c(NC(=O)CC(C)N)c1` (stereo not drawn) [Example 1, 3-Amino-5'-methoxy-2'-(2-pyridyl)butynanilide], the inhibition in vivo at 30 mg/kg in data set [1] was 80%.

Regarding `Cc1ccc(-c2ccccn2)c(NC(=O)CC(C)N)c1` (stereo not drawn) [Example 8, 3-Amino-5'-methyl-2'-(2-pyridyl)butyranilide], the inhibition in vivo at 30 mg/kg in data set [1] was 90%. Still for that read-out and setting: with `CC(N)CC(=O)Nc1cc(OCC(F)(F)F)ccc1-c1cccnc1` (stereo not drawn) [Example 20, 3-Amino-2'-(3-pyridyl)-5'-(2,2,2-trifluoroethoxy)butyranilide monohydrochloride] the figure was 100%; with `CC(N)CC(=O)Nc1c(OCC(F)(F)F)cccc1-c1cccnc1` (stereo not drawn) [Example 23, 3-Amino-2'-(3-pyridyl)-6'-(2,2,2-trifluoroethoxy)butyranilide], 70%.

As for `C=CCOc1ccc(-c2cccnc2)c(NC(=O)CC(C)N)c1` (stereo not drawn) [Example 28, 5'-Allyloxy-3-amino-2'-(3-pyridyl)butyranilide], the ED100 in data set [2] was 1.5 to 2.8 mg/kg. In data set [1], the inhibition in vivo at 30 mg/kg stood at 70%. With `C=CCOc1ccc(-c2ccccn2)cc1NC(=O)CC(C)N` (stereo not drawn) [Example 30, 2'-Allyloxy-3-amino-5'-(2-pyridyl)butyranilide dihydrochloride], the inhibition in vivo at 30 mg/kg in data set [1] was found to be 70%. For the compound `CCOc1ccc(-c2cccnc2)c(NC(=O)CC(C)N)c1.Cl.Cl` (stereo not drawn) [Example 33, 3-Amino-5'-ethoxy-2'-(3-pyridyl)butyranilide dihydrochloride], the ED100 in data set [2] lay in the range of 2 to 3 mg/kg. Besides, the inhibition in vivo at 30 mg/kg in data set [1] was found to be 80%.

On to `COc1ccc(-c2ncc[nH]2)c(NC(=O)CC(C)N)c1` (stereo not drawn) [Example 45, 3-Amino-2'-(2-imidazolyl)-5'-methoxybutyranilide], for which, in data set [1], the inhibition in vivo at 30 mg/kg stood at 80%.

Regarding `COc1ccc(-c2nc3cccnc3[nH]2)c(NC(=O)CC(C)N)c1` (stereo not drawn) [Example 46], the inhibition in vivo at 30 mg/kg in data set [1] worked out at 80%.

For the compound `COc1ccc(C(O)c2cccnc2)cc1NC(=O)CC(C)N` (stereo not drawn) [Example 56, 3-Amino-5'-[hydroxy-(3-pyridyl)methyl]-2'-methoxybutyranilide hydrochloride], the inhibition in vivo at 30 mg/kg in data set [1] was determined as 70%. On to `CC(C)N(CCC(C(N)=O)(c1ccccc1)c1ccccn1)C(C)C` (stereo not drawn) [disopyramide], for which, in data set [3] (background), the “action on the myocardium” value was “inhibiting action on the myocardium”. Besides, the side effects entry in data set [3] is “thirst, ischurin, constipation, dizziness and vomiting”. On to `Cc1cccc(C)c1OCC(C)N` (stereo not drawn) [mexiletine, reference compound], for which the ED100 in data set [2] fell in the range of 2 to 4.5 mg/kg. Moreover, the inhibition in vivo at 30 mg/kg in data set [1] is 50%. Moreover, the side effects entry in data set [3] was “side effects on the digestive system and the meuropsychotic system with a high frequency”. The “activity on the central nervous system” value in data set [3] (reported (background)) is given as “has activity on the central nervous system”.
